Patent US20260022134A1, “N-HETEROCYCLE-CONTAINING BORIC ACID COMPOUND AND PREPARATION METHOD AND APPLICATION THEREOF” (Hangzhou City University, priority 2022, published 2026)

Assays:
Type in all cases: cell-based
glioblastoma cells A172 [1] = assay: SRB colorimetric analysis, cell survival/proliferation
Protocol: (§1) After passage to the logarithmic phase, the cells were dissociated by 0.25 trypsin-EDTA and blown into single cells, and with a final cell concentration adjusted to […], inoculated into a 96-well plate with each well 100 μl (edge wells were filled with sterile PBS), 5% CO2, and 37° C. incubation. After 24 h (until a single layer of cells were spread to 30% to 50% of the well bottom), a cell culture solution containing drugs of corresponding concentrations was added and incubated for 24, 48 and 72 h in a 5% CO2, 37° C. incubator. Each drug concentration was provided with three parallel wells. The cells were medicate-cultured for 24, 48 and 72 h and then fixed by trichloroacetic acid (TCA). Each well of the cells was fixed by a pre-cooled 15% TCA liquid 100 μl, and then the 96-well plate was moved to 4° C. and stood for 4 h. The fixing liquid was discarded and the 96 wells were washed five times with sterile triple-distilled water and spin-dried and air-dried in 37° C. drying oven. Each well was added with 100 μl 0.4% SRB solution, and kept free from light and stood for 30 min at room temperature. The SRB not combined with proteins was cleaned with 1% glacial acetic acid and air-dried in 37° C. drying oven. The combined SRB was dissolved by 100 μl 10 mM non-buffer Tris alkaline solution (pH 10.5), and oscillated and mixed uniformly and then measured for the OD value on an enzyme-linked immuno detector. By blank control zero setting, the OD value of each well was measured at the position of a wavelength of 570 nm. The obtained growth inhibition rate of the tumor cells was defined as an in vitro inhibition rate of the drug on the tumor cells. The inhibition rate is […].
(§2) Firstly, we evaluated the growth inhibition effect of (3-((5-chloro-4-(1H-pyrrolo[2,3-b]pyridin-3-yl)pyrimidin-2-yl)amino)phenyl)boric acid on the MG cells U251A172 and U87 of three different glioblastoma cell series. With different concentrations of (3-((5-chloro-4-(1H-pyrrolo[2,3-b]pyridin-3-yl)pyrimidin-2-yl)amino)phenyl)boric acid, the cells U251, A172 and U87 were treated for 24 h, 48 h and 72 h and then based on the SRB detection method, the survival rate of the cells treated by (3-((5-chloro-4-(1H-pyrrolo[2,3-b]pyridin-3-yl)pyrimidin-2-yl)amino)phenyl)boric acid was detected. […] The cytotoxic effect of the U87 was more obvious than those of U251 and A172.

glioblastoma cells U87 = assay: as above
Protocol: as §1, §2

glioblastoma cells U251 [2] = assay: as above
Protocol: as §1, §2

glioma cells U87 = assay: Flow cytometry cell cycle analysis (PI staining); settings: cells U87, 24 h treatment; increased from 11.99%
Protocol: (§3) The cells of the logarithmic phase were taken and dissociated by 0.25% trypsin-EDTA and blown into single cells, and inoculated into the 6-well plate with a density of 2000 to 3000 pcs/well, and gently shaken to disperse the cells uniformly and then placed into 5% CO2, 37° C. incubator for incubation. After 24 h, the original culture medium was discarded and a fresh cell culture medium containing drugs of corresponding concentrations was then added; after the cells were incubated for 24 h, the cells were dissociated by 0.25% trypsin-EDTA and cleaned twice with 1 mL of precooled PBS and then re-suspended with 250 μl PBS and slowly added dropwise into 750 μl of precooled 75% ethyl alcohol, and then fixed at the temperature of −20° C. overnight. […] Propidium iodide (PI) with a final concentration of […] was added for staining of 1 h free from light at room temperature, and then filtered by gauze and then transferred to a flow tube and detected and analyzed by a flow cytometer.
(§4) In order to determine the mechanism of the growth inhibition effect of (3-((5-chloro-4-(1H-pyrrolo[2,3-b]pyridin-3-yl)pyrimidin-2-yl)amino)phenyl)boric acid on the cells U251 and U87, after 24 h following the treatment with different concentrations of (3-((5-chloro-4-(1H-pyrrolo[2,3-b]pyridin-3-yl)pyrimidin-2-yl)amino)phenyl)boric acid, the cell cycle was analyzed and evaluated by flow cytometry.

glioma cells U251 = assay: Flow cytometry cell cycle analysis (PI staining); settings: cells U251, 24 h treatment; increased from 14.70%
Protocol: as §3, §4

glioblastoma cells A172 [3] = assay: Cell colony-formation assay; settings: cells A172, 14 days, different concentrations
Protocol: (§5) The cells of the logarithmic phase were taken and dissociated by 0.25% trypsin-EDTA and blown into single cells, and inoculated into the 6-well plate with a density of 2000 to 3000 pcs/well, and gently shaken to disperse the cells uniformly and then placed into 5% CO2, 37° C. incubator for incubation. After 24 h, the original culture medium was discarded and a fresh cell culture medium containing drugs of corresponding concentrations was then added, and the cells then were incubated in the incubator for about 14 days. During this period, the fresh culture medium containing the drugs of corresponding concentrations was replaced every two or three days. Frequent observation should be made to ensure that when a macroscopic colony appears in the culture plate, the culture was ended. The supernatant was discarded and cleaning was performed carefully twice with PBS. […] Finally, the number of the formed colonies was calculated.
(§6) In order to determine the effect of (3-((5-chloro-4-(1H-pyrrolo[2,3-b]pyridin-3-yl)pyrimidin-2-yl)amino)phenyl)boric acid on the cell colony formation ability of the glioblastoma, we treated the cells U251 and A172 with different concentrations of (3-((5-chloro-4-(1H-pyrrolo[2,3-b]pyridin-3-yl)pyrimidin-2-yl)amino)phenyl)boric acid and 14 days later, determined the cell colony formation ability by colony determination.

glioblastoma cells U251 [4] = assay: Cell colony-formation assay; settings: cells U251, 14 days, different concentrations
Protocol: as §5, §6

[5] = tested on: p-Stat3, p-Akt, c-Myc, Cyclin B1, p-Erk1/2 in cells U87; assay: Western blot of cell protein expressions; settings: cells U87, after 24 h treatment
Protocol: (§7) The cell supernatant was discarded and the cells were washed twice with PBS; based on cell confluence, a corresponding amount of Loading buffer was added, and stirred by a pipette tip while fully covered, and then collected to a centrifuge tube and centrifuged and then placed into a high-temperature metal bath of 100° C. for denaturation of 10 min, then cooled on ice and centrifuged and stored at the temperature of −20° C. for later use in the Western blot. The loading volume was adjusted by Western block pre-experiment to ensure the internal control proteins were uniform. • 2) BSA quantitative method
(§8) The cells treated by the trypsin dissociation and collection assay were centrifuged for 4 min at the rotation speed of 1500 rpm/min. The supernatant was discarded and the cells were re-suspended and washed with the pre-cooled PBS and then transferred to al. 5 mL Eppendorf tube and then centrifuged again and the supernatant was all discarded. Cell lysis was carried out on ice, and based on a precipitation amount, a proper amount of RIPA lysis solution was added and blown uniform by the pipette and then stood on ice. The cells were whirled or dispersed once every other 10 min, and 30 min later, the cells were put into a pre-cooled 4° C. centrifugal machine and centrifuged for 30 min at the rotation speed of 12000 rpm/min. The supernatant was sucked to a new Eppendorf tube to obtain a protein sample solution.
(§9) A standard protein BSA was selected for making a standard curve and the BSA was sequentially half-diluted by 10 factors. The protein sample was diluted with deionized water by 10 factors and 5 μL of diluted sample was sucked to a new Eppendorf tube and then 200 μL of BCA reagent was added to each tube (liquid A: liquid B=50:1) and placed in a 37° C. drying oven for incubation of 30 min After completion of the reaction, the liquid was whirled uniformly and 100 μL was sucked to a 96-well plate and measured for the OD value at the position of the wavelength 562 nm. Based on the standard curve, quantification was performed to sub-package the protein sample and then 5×Loading buffer was added for denaturation of 10 min at the temperature of 100° C., and cooled and centrifuged and then stored at the temperature of −20° C. for later use. • 3) Gel preparation: based on the size of target protein molecules, a desired gel was prepared and then solidified and then put into deionized water and stored in 4° C. refrigerator for later use. • 4) Electrophoresis: before electrophoresis, the protein sample was heated for 3 to 5 min at the temperature of 100° C. and then cooled and centrifuged and then loaded. A protein marker was added before the sample and then equal-volume or equal-quantity loading was performed in a sequence. After completion of loading, constant-voltage electrophoresis was performed with the voltage adjusted to 70V. Electrophoresis was stopped when the sample runs to a position 1 cm from the bottom glass plate, and transfer was performed. • 5) Transfer: 1×Transfer buffer 1000 mL containing 10% anhydrous ethanol was prepared, and the anhydrous ethanol activates PVDF membrane for 1 min and then the membrane was put into a Trans Buffer solution. Based on the target protein molecules, gel cutting was performed, and transfer was carried out based on black gel and white membrane. Under the condition of ice water bath, 330 mA constant-current transfer was performed for 70 min. • 6) Blocking: after transfer completion, the membrane was put into 5% skimmed mil powder solution and the shaker was blocked for 1 h at room temperature. • 7) Primary antibody incubation: a corresponding primary antibody was prepared for incubation of a target strip. The primary antibody was put into a 4° C. refrigerator and incubated by the shaker overnight. […]

[6] = tested on: p-Stat3, p-Akt, c-Myc, Cyclin B1, p-Erk1/2 in cells U251; assay: Western blot of cell protein expressions; settings: cells U251, after 24 h treatment
Protocol: as §7, §8, §9

glioblastoma cells A172 [7] = assay: Transwell cell migration assay; settings: cells A172, 24 h, different concentrations
Protocol: (§10) The cells of the logarithmic phase were taken and dissociated by 0.25% trypsin-EDTA and blown into single cells. 200 μL of serum-free culture medium containing 5×10^4 cells was sucked and added into the Transwell upper chamber and 600 μL of culture medium containing 20% FBS was transferred to the Transwell lower chamber and drugs of corresponding concentrations were added to the upper and lower chambers. Culture was performed for 24 h in the cell incubator. In each well of the 24-well plate, 300 μL of 1% crystal violet methanol solution was added. After the culture medium was sucked and discarded, the Transwell chamber was placed into crystal violet and fixed free from light at room temperature and stained for 30 min. The chamber was picked by tweezers into the PBS buffer solution and washed slowly, and the cells and surplus crystal violet in the upper chamber were gently wiped with a cotton swab and then photographed under microscope for counting to calculate the number of the migrating cells of each group. […]

glioblastoma cells U251 [8] = assay: Transwell cell migration assay; settings: cells U251, 24 h, different concentrations
Protocol: as §10

SMILES: OB(O)c1cccc(Nc2ncc(Cl)c(-c3c[nH]c4ncccc34)n2)c1 [(3-((5-chloro-4-(1H-pyrrolo[2,3-b]pyridin-3-yl)pyrimidin-2-yl)amino)phenyl)boric acid]
- IC50 (glioblastoma cells A172 [1]; Homo sapiens, A 172, cells A172 treated for 72 h): 0.48 µM
- cytotoxic effect (survival rate, SRB) (glioblastoma cells A172 [1]; cells A172, 24 h, 48 h and 72 h, different concentrations): significant cytotoxic effect
- cytotoxic effect (survival rate, SRB) (glioblastoma cells U87; cells U87, 24 h, 48 h and 72 h, different concentrations): significant cytotoxic effect
- IC50 (glioblastoma cells U87; cells U87 treated for 72 h): 0.17 µM
- IC50 (glioblastoma cells U251 [2]; Homo sapiens, U-251, cells U251 treated for 72 h): 0.38 µM
- cytotoxic effect (survival rate, SRB) (glioblastoma cells U251 [2]; cells U251, 24 h, 48 h and 72 h, different concentrations): significant cytotoxic effect
- distribution of the G2/M phase (glioma cells U87): 42.62%
- distribution of the G2/M phase (glioma cells U251): 40.61%
- number of cell colonies (glioblastoma cells A172 [3]): reduced the number of the cell colonies in a dose-dependent way
- number of cell colonies (glioblastoma cells U251 [4]): reduced the number of the cell colonies in a dose-dependent way
- Cyclin B1 protein expression [5]: decreased
- c-Myc protein expression [5]: decreased
- p-Akt protein expression [5]: decreased
- p-Erk1/2 protein expression [5]: increased
- p-Stat3 protein expression [5]: decreased
- Cyclin B1 protein expression [6]: decreased
- c-Myc protein expression [6]: decreased
- p-Akt protein expression [6]: decreased
- p-Erk1/2 protein expression [6]: increased
- p-Stat3 protein expression [6]: decreased
- cell migration (number of migrating cells) (glioblastoma cells A172 [7]): significant cell migration inhibition effect
- cell migration (number of migrating cells) (glioblastoma cells U251 [8]): significant cell migration inhibition effect
